According to patent US10562882B2, “Piperidine derivatives for use in the treatment or prevention of psychiatric and neurological conditions” (Takeda Pharmaceutical Company Limited, priority 2013, dated 2020):
Where a name gives a salt, the structure may show the parent alone.

Target: human PKR1 receptors (Homo sapiens (Human), UniProt Q8TCW9)
Assay: PKR1 antagonist intracellular calcium (FLIPR) assay, block of PK1-mediated calcium release
Format: cell-based
Conditions: RBL2H3 cells expressing human PKR1; PK1 at EC80; minimum of two independent assays
Experimental: Prokineticin receptor 1 (PKR1) antagonists may be functionally assessed by measurement of change in intracellular calcium levels induced by Gq mediated increase in inositol triphosphate (IP3) levels. The ability of a compound to block the intracellular release of calcium mediated by PK1 in RBL2H3 cells expressing human PKR1 receptors is determined as a measure of the compound's antagonist activity in vitro.
Approximately 10,000 cells per assay well are seeded in normal culture medium in a 384 well plate (Corning). Twenty-four hours after seeding, the cells are loaded with a calcium sensitive fluorescent dye by replacing the culture medium with assay buffer (1× Hanks buffered saline, 25 mM HEPES, 0.1% w/v fatty acid free BSA (bovine serum albumin), pH 7.4) containing 1 mM probenecid and 1× Calcium 5 Reagent (Molecular Devices). Cells are incubated at 37° C. for 1 hour to allow for dye uptake.
To test for antagonist activity, test compounds at a final concentration range between 0.32 nM-10 μM (diluted in assay buffer) are added to duplicate assay wells and allowed to incubate for 10 minutes prior to stimulation with PK1. After incubation with test compounds the assay plate is placed in a FLIPR Tetra (Molecular Devices) and PK1 (diluted in assay buffer) is added at the determined EC80 concentration (final). Ligand-dependent changes in intracellular calcium levels are determined by measuring changes in fluorescence of the dye at […] following excitation at 485 nm. […] A minimum of two IC50 values determined from independent assays are generated for each compound.

Sequence of human PKR1 receptors (Q8TCW9 whole entry): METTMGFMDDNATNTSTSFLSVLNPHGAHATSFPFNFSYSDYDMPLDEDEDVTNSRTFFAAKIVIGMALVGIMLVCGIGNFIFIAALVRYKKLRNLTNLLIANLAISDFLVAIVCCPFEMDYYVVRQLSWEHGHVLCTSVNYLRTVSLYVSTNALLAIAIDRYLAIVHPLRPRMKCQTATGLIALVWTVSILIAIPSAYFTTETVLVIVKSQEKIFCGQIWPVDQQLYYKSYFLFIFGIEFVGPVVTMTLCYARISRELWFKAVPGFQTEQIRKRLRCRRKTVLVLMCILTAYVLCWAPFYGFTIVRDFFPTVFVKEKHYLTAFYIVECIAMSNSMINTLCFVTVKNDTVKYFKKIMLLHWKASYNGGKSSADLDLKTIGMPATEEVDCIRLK

Row | SMILES | IC50 [nM]
1 | CNc1cc(C(=O)N2CCCC(OC)(c3ncc(Cl)cc3C(F)(F)F)C2)ccn1 (centres unmarked) [Example 29, 4-{3-[5-Chloro-3-(trifluoromethyl)pyridin-2-yl]-3-methoxypiperidine-1-carbonyl}-N-methylpyridin-2-amine formate] | 480
2 | CCn1c(C2CCCN(C(=O)c3ccnc(N(C)C)c3)C2)cc2ccccc21 (centres unmarked) [Example 10, 4-[3-(1-Ethyl-1H-indol-2-yl)piperidine-1-carbonyl]-N,N-dimethylpyridin-2-amine] | 390
3 | CCn1cc(C(=O)N2CCCC(F)(c3ncc(Cl)cc3C)C2)cn1 (centres unmarked) [Example 41, 5-Chloro-2-[1-(1-ethyl-1H-pyrazole-4-carbonyl)-3-fluoropiperidin-3-yl]-3-methylpyridine] | 2390
4 | COC1(c2ncc(Cl)cc2C(F)(F)F)CCCN(C(=O)c2ccnc(N(C)C)c2)C1 (centres unmarked) [Example 33, 4-{3-[5-Chloro-3-(trifluoromethyl)pyridin-2-yl]-3-methoxypiperidine-1-carbonyl}-N,N-dimethylpyridin-2-amine] | 510
5 | CNc1cc(C(=O)N2CCCC(c3cc4ccccc4n3C)C2)cnn1 (centres unmarked) [Example 9, N-Methyl-5-[3-(1-methyl-1H-indol-2-yl)piperidine-1-carbonyl]pyridazin-3-amine] | 1080
6 | CNc1cc(C(=O)N2CCCC(c3cc4ccccc4n3C(C)C)C2)cnn1 (centres unmarked) [Example 14, N-Methyl-5-{3-[1-(propan-2-yl)-1H-indol-2-yl]piperidine-1-carbonyl}pyridazin-3-amine] | 540
7 | CC(C)n1c(C2CCCN(C(=O)c3ccnc(N(C)C)c3)C2)nc2ccccc21 (racemic) [Example 1, N,N-Dimethyl-4-{3-[1-(propan-2-yl)-1H-1,3-benzodiazol-2-yl]piperidin-1-carbonyl}pyridin-2-amine (racemic)] | 320
8 | CCn1c(C2CCCN(C(=O)c3cn(C)nc3N)C2)cc2cc(Cl)ccc21 (centres unmarked) [Example 27, 4-[3-(5-Chloro-1-ethyl-1H-indol-2-yl)piperidine-1-carbonyl]-1-methyl-1H-pyrazol-3-amine] | 910
9 | COC1(c2ncc(Cl)cc2C)CCCN(C(=O)c2cnnc(N(C)C)c2)C1 (centres unmarked) [Example 37, 5-[3-(5-Chloro-3-methylpyridin-2-yl)-3-methoxypiperidine-1-carbonyl]-N,N-dimethylpyridazin-3-amine] | 920
10 | CCn1c(C2CCCN(C(=O)c3cnnc(NC)c3)C2)cc2cc(C)ccc21 (centres unmarked) [Example 19, 5-[3-(1-Ethyl-5-methyl-1H-indol-2-yl)piperidine-1-carbonyl]-N-methylpyridazin-3-amine] | 2690
11 | CCn1c(C2CCCN(C(=O)c3cn(C)nc3N)C2)cc2cc(C)ccc21 (centres unmarked) [Example 26, 4-[3-(1-Ethyl-5-methyl-1H-indol-2-yl)piperidine-1-carbonyl]-1-methyl-1H-pyrazol-3-amine] | 3120
12 | CN(C)c1cc(C(=O)N2CCCC(c3nc4ccccc4n3C)C2)ccn1 (centres unmarked) [Example 4, N,N-Dimethyl-4-[3-(1-methyl-1H-1,3-benzodiazol-2-yl)piperidine-1-carbonyl]pyridin-2-amine] | 1220
13 | CC(C)n1c(C2CCCN(C(=O)c3cn(C)nc3N)C2)cc2ccccc21 (centres unmarked) [Example 16, 1-Methyl-4-{3-[1-(propan-2-yl)-1H-indol-2-yl]piperidine-carbonyl}-1H-pyrazol-3-amine] | 1440
14 | CC(C)n1c(C2CCCN(C(=O)c3cnnc(N(C)C)c3)C2)cc2ccccc21 (centres unmarked) [Example 13, N,N-Dimethyl-5-{3-[1-(propan-2-yl)-1H-indol-2-yl]piperidine-1-carbonyl}pyridazin-3-amine] | 760
15 | CCn1cc(C(=O)N2CCCC(OC)(c3ncc(Cl)cc3C(F)(F)F)C2)cn1 (centres unmarked) [Example 32, 5-Chloro-2-[1-(1-ethyl-1H-pyrazole-4-carbonyl)-3-methoxypiperidin-3-yl]-3-(trifluoromethyl)pyridine] | 1880
16 | CCn1cc(C(=O)N2CCCC(c3cc4cc(C)ccc4n3CC)C2)cn1 (centres unmarked) [Example 17, 1-Ethyl-2-{1-[(1-ethyl-1H-pyrazol-4-yl)carbonyl]piperidin-3-yl}-5-methyl-1H-indole] | 2590
17 | CC(C)n1c(C2CCCN(C(=O)c3cnnc(Cl)c3)C2)nc2ccccc21 (centres unmarked) [Example 5, 2-[1-(6-Chloropyridazine-4-carbonyl)piperidin-3-yl]-1-(propan-2-yl)-1H-1,3-benzodiazole] | 7460
18 | CCn1c(C2CCCN(C(=O)c3cn(C)nc3N)C2)c(C)c2ccccc21 (centres unmarked) [Example 25, 4-[3-(1-Ethyl-3-methyl-1H-indol-2-yl)piperidine-1-carbonyl]-1-methyl-1H-pyrazol-3-amine] | 7860

Row | SMILES | IC50 [nM]
19 | CNc1cc(C(=O)N2CCCC(OC)(c3ncc(Cl)cc3C)C2)cnn1 (centres unmarked) [Example 36, 5-[3-(5-Chloro-3-methylpyridin-2-yl)-3-methoxypiperidine-1-carbonyl]-N-methylpyridazin-3-amine] | 1490
20 | CCn1c(C2CCCN(C(=O)c3cnnc(N(C)C)c3)C2)cc2cc(C)ccc21 (centres unmarked) [Example 21, 5-[3-(1-Ethyl-5-methyl-1H-indol-2-yl)piperidine-1-carbonyl]-N,N-dimethylpyridazin-3-amine] | 5340
21 | COC1(c2ncc(Cl)cc2C)CCCN(C(=O)c2cn(C)nc2N)C1 (centres unmarked) [Example 42, 4-[3-(5-Chloro-3-methylpyridin-2-yl)-3-methoxypiperidine-1-carbonyl]-1-methyl-1H-pyrazol-3-amine] | > 9000
22 | CNc1cc(C(=O)N2CCCC(c3[nH]c4ccccc4c3C)C2)cnn1 (centres unmarked) [Example 23, N-Methyl-5-[3-(3-methyl-1H-indol-2-yl)piperidine-1-carbonyl]pyridazin-3-amine] | 7410
23 | CNc1cc(C(=O)N2CCCC(OC)(c3ncc(Cl)cc3C(F)(F)F)C2)cnn1 (centres unmarked) [Example 30, 5-({3-[5-Chloro-3-(trifluoromethyl)pyridin-2-yl]-3-methoxypiperidin-1-yl}carbonyl)-N-methylpyridazin-3-amine] | 2080
24 | CCn1c(C2CCCN(C(=O)c3cnnc(NC)c3)C2)c(C)c2ccccc21 (centres unmarked) [Example 18, 5-[3-(1-Ethyl-3-methyl-1H-indol-2-yl)piperidine-1-carbonyl]-N-methylpyridazin-3-amine] | 2170
25 | CC(C)n1c(C2CCCN(C(=O)c3ccnc(N(C)C)c3)C2)nc2ccccc21 (single isomer, unassigned; enantiomer 2) [Example 3, N,N-Dimethyl-4-{3-[1-(propan-2-yl)-1H-1,3-benzodiazol-2-yl]piperidine-1-carbonyl}pyridin-2-amine (enantiomer 2)] | 9060
26 | CCn1cc(C(=O)N2CCCC(c3nc4ccccc4n3C(C)C)C2)cn1 (centres unmarked) [Example 7, 2-[1-(1-Ethyl-1H-pyrazole-4-carbonyl)piperidin-3-yl]-1-(propan-2-yl)-1H-1,3-benzodiazole] | 1820
27 | Cc1cc(Cl)cnc1C1(F)CCCN(C(=O)c2cnnc(N(C)C)c2)C1 (centres unmarked) [Example 39, 5-[3-(5-Chloro-3-methylpyridin-2-yl)-3-fluoropiperidine-1-carbonyl]-N,N-dimethylpyridazin-3-amine] | 400
28 | CNc1cc(C(=O)N2CCCC(c3nc4ccccc4n3C(C)C)C2)cnn1 (centres unmarked) [Example 6, N-Methyl-5-{3-[1-(propan-2-yl)-1H-1,3-benzodiazol-2-yl]piperidine-1-carbonyl}pyridazin-3-amine] | 1740
29 | COC1(c2ncc(Cl)cc2C(F)(F)F)CCCN(C(=O)c2cnnc(N(C)C)c2)C1 (centres unmarked) [Example 31, 5-{3-[5-Chloro-3-(trifluoromethyl)pyridin-2-yl]-3-methoxypiperidine-1-carbonyl}-N,N-dimethylpyridazin-3-amine] | 1620
30 | CC(C)n1c(C2CCCN(C(=O)c3ccnc(N(C)C)c3)C2)nc2ccccc21 (single isomer, unassigned; enantiomer 1) [Example 2, N,N-Dimethyl-4-{3-[1-(propan-2-yl)-1H-1,3-benzodiazol-2-yl]piperidine-1-carbonyl}pyridin-2-amine (enantiomer 1)] | 330
31 | Cc1c(C2CCCN(C(=O)c3cnnc(N(C)C)c3)C2)[nH]c2ccccc12 (centres unmarked) [Example 24, N,N-Dimethyl-5-[3-(3-methyl-1H-indol-2-yl)piperidine-1-carbonyl]pyridazin-3-amine] | 7410
32 | CNc1cc(C(=O)N2CCCC(F)(c3ncc(Cl)cc3C)C2)cnn1 (centres unmarked) [Example 38, 5-[3-(5-Chloro-3-methylpyridin-2-yl)-3-fluoropiperidine-1-carbonyl]-N-methylpyridazin-3-amine] | 1250
33 | CCn1c(C2CCCN(C(=O)c3cnnc(NC)c3)C2)cc2cc(Cl)ccc21 (centres unmarked) [Example 20, 5-[3-(5-Chloro-1-ethyl-1H-indol-2-yl)piperidine-1-carbonyl]-N-methylpyridazin-3-amine] | 1250
34 | CCn1c(C2CCCN(C(=O)c3cnnc(NC)c3)C2)cc2ccccc21 (centres unmarked) [Example 12, 5-[3-(1-Ethyl-1H-indol-2-yl)piperidine-1-carbonyl]-N-methylpyridazin-3-amine] | 480
35 | Cc1cc(Cl)cnc1C1CCCN(C(=O)c2cnnc(N(C)C)c2)C1 (centres unmarked) [Example 28, 5-[3-(5-Chloro-3-methylpyridin-2-yl)piperidine-1-carbonyl]-N,N-dimethylpyridazin-3-amine] | 1040
